Data set [1] has as its target T1, Protein cereblon/Bromodomain-containing protein 4 (Homo sapiens) (UniProt O60885+Q96SW2). Kind of data set: PROTAC activity at CRBN/BRD4 in human MCF7 cells assessed as induction of BRD4 degradation at 1 uM measured after 24 hrs by Western blot analysis relative to control. The format is cell-based. (In general: A western blot detects proteins with antibodies after separation by electrophoresis.)

The target of data set [2] is T1, Protein cereblon/Bromodomain-containing protein 4 (Homo sapiens). Kind of data set: PROTAC activity at CRBN/BRD4 in human MCF7 cells assessed as induction of BRD4 degradation at 1 uM measured after 18 hrs in presence of MLN4924 by Western blot analysis. The format is cell-based.
Data set [3] can be described thus: Stability of the compound assessed as UV-light induced degradation measured after 30 mins by HPLC analysis. It is filed as physicochemical. To be noted: 0.5 h.
For data set [4], the target named is T1, Protein cereblon/Bromodomain-containing protein 4 (Homo sapiens). Briefly: PROTAC activity at CRBN/BRD4 in human MCF7 cells assessed as induction of BRD4 degradation measured after 6 to 24 hrs by Western blot analysis. The format is cell-based. Particulars: dose <= 1.0 µM, time 6-24 hrs.
Data set [5] shares this target. Kind of data set: PROTAC activity at CRBN/BRD4 in human MCF7 cells assessed as induction of BRD4 degradation at 1 uM measured after 18 hrs in presence of MG132 by Western blot analysis. It is filed as cell-based.
For data set [6] the target is unchanged. Briefly: PROTAC activity at CRBN/BRD4 in human MCF7 cells assessed as induction of BRD4 degradation at 1 uM measured after 24 hrs by Western blot analysis. It is filed as cell-based.
Data set [7] shares this target. Kind of data set: PROTAC activity at CRBN/BRD4 in human MCF7 cells assessed as induction of BRD4 degradation at 1 uM measured after 18 hrs in presence of […] by Western blot analysis. It is filed as cell-based.
For data set [8] the target is unchanged. Kind of data set: PROTAC activity at CRBN/BRD4 in human MCF7 cells assessed as induction of BRD4 degradation at 1 uM measured after 6 to 24 hrs by Western blot analysis relative to control. The format is cell-based. To be noted: time 6-24 hrs.

Active and inactive are the calls of the source. No cut-off for these calls is given here. Some results are limits rather than exact numbers.

T1 sequence (Q96SW2 whole entry, looked up, other chains not shown): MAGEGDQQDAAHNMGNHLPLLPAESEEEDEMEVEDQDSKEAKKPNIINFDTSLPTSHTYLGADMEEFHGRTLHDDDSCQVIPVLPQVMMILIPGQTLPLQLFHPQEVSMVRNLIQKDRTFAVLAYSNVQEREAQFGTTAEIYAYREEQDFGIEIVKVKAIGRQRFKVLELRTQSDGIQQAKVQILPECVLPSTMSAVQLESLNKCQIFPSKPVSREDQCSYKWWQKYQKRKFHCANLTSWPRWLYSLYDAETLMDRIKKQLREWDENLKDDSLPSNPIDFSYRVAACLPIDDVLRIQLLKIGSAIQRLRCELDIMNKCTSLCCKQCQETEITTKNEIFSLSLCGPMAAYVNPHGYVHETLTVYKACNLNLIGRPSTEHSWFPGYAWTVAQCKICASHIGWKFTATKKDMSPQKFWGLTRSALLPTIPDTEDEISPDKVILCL

In the case of `Cc1sc2c(c1C)C(c1ccc(Cl)cc1)=N[C@@H](CC(=O)NCCCNC(=O)OCc1cc(OCCCNc3cccc4c3C(=O)N(C3CCC(=O)NC3=O)C4=O)ccc1[N+](=O)[O-])c1nnc(C)n1-2` (some centres undefined), the Activity in data set [1] was over 80%; in data set [4], “Dose-Dependent Effect”; in data set [8] it was over 80%. The result in data set [2], in data set [5] and in data set [7] was inactive. For the same compound, the Stability entry in data set [3] was “Unstable”. The outcome in data set [6] was Active.
`Cc1sc2c(c1C)C(c1ccc(Cl)cc1)=N[C@@H](CC(=O)NCCNC(=O)OCc1cc(OCCCNc3cccc4c3C(=O)N(C3CCC(=O)NC3=O)C4=O)ccc1[N+](=O)[O-])c1nnc(C)n1-2` (some centres undefined): the Activity was over 80% in data set [1] and “Dose-Dependent Effect” in data set [4]. Also, the result in data set [2], in data set [5] and in data set [7] was inactive. The result in data set [6] was Active.
For `Cc1sc2c(c1C)C(c1ccc(Cl)cc1)=N[C@@H](CC(=O)NCCCNC(=O)OCc1cc(OCCCNC(=O)CNc3cccc4c3C(=O)N(C3CCC(=O)NC3=O)C4=O)ccc1[N+](=O)[O-])c1nnc(C)n1-2` (some centres undefined), the Activity in data set [1] was over 80%. In addition, the outcome in data set [2], in data set [5] and in data set [7] was inactive. Moreover, in data set [6], the result was Active.
